These results are taken from US9326985B2, “Heteroaryl pyridone and aza-pyridone amide compounds” (Genentech, Inc., priority 2013, dated 2016).

SMILES strings stand for the structures.

The subject of the first assay is CD69 by B lymphocytes in human whole blood activated with goat F(ab')2 anti-human IgM. The assay can be described thus: CD69 Whole Blood Assay (CD69 Hu Blood FACS). It counts as cell-based. Particulars: Homo sapiens, Lymphocyte, Table 1, anti-IgM stimulation, CD69 positive of CD20 positive cells. Here is the method: CD69 is a type II C-type lectin involved in lymphocyte migration and cytokine secretion.
Human blood is obtained from healthy volunteers, with the following restrictions: 1 week drug-free, non-smokers. Blood (approximately 20 mls to test 8 compounds) is collected by venipuncture into Vacutainer® (Becton, Dickinson and Co.) tubes with sodium heparin.
Solutions of Formula I compounds at 10 mM in DMSO are diluted 1:10 in 100% DMSO, then are diluted by three-fold serial dilutions in 100% DMSO for a ten point dose-response curve. The compounds are further diluted 1:10 in PBS and then an aliquot of 5.5 μl of each compound is added in duplicate to a 2 ml 96-well plate; 5.5 μl of 10% DMSO in PBS is added as control and no-stimulus wells. Human whole blood—HWB (100 μl) is added to each well. After mixing the plates are incubated at 37° C., 5% CO2, 100% humidity for 30 minutes. Goat F(ab′)2 anti-human IgM (10 μl of a 500 μg/ml solution, 50 μg/ml final) is added to each well (except the no-stimulus wells) with mixing and the plates are incubated for an additional 20 hours. At the end of the 20 hour incubation, samples are incubated with fluorescent labeled antibodies for 30 minutes, at 37° C., 5% CO2, 100% humidity. Include induced control, unstained and single stains for compensation adjustments and initial voltage settings. Samples are then lysed with PharM Lyse™ (BD Biosciences Pharmingen) according to the manufacturer's instructions. Samples are then transferred to a 96 well plate suitable to be run on the BD Biosciences HTS 96 well system on the LSRII machine. Data acquired and Mean Fluorescence Intensity values were obtained using BD Biosciences DIVA Software. Results are initially analyzed by FACS analysis software (Flow Jo).
A word on the IC50: it is the concentration needed to halve the response being measured. Low readings indicate greater potency, high ones weaker potency. For the molecule `Cn1cc(-c2ccnc(N3CCn4c(cc5c4CC(C)(C)C5)C3=O)c2CO)cc(NC(=O)[C@H]2C[C@H]2F)c1=O` [Compound 119, (1R,2R)—N-[5-[2-(7,7-dimethyl-4-oxo-1,2,6,8-tetrahydrocyclopenta[3,4]pyrrolo[3,5-b]pyrazin-3-yl)-3-(hydroxymethyl)-4-pyridyl]-1-methyl-2-oxo-3-pyridyl]-2-fluoro-cyclopropanecarboxamide], it took 122 nM to reach half-maximal inhibition (IC50).

`Cn1cc(-c2ccnc(N3CCn4c(cc5c4CC(C)(C)C5)C3=O)c2CO)cc(NC(=O)[C@@H]2C[C@@H]2F)c1=O` [Compound 120, (1S,2S)—N-[5-[2-(7,7-dimethyl-4-oxo-1,2,6,8-tetrahydrocyclopenta[3,4]pyrrolo[3,5-b]pyrazin-3-yl)-3-(hydroxymethyl)-4-pyridyl]-1-methyl-2-oxo-3-pyridyl]-2-fluoro-cyclopropanecarboxamide]: half-maximal inhibition (IC50) required 85.8 nM.

Regarding `Cn1cc(-c2ccnc(-n3ncc4cc(C(C)(C)C)cc(F)c4c3=O)c2CO)cc(NC(=O)C2CC2)c1=O` [Compound 125, N-[5-[2-(6-tert-butyl-8-fluoro-1-oxo-phthalazin-2-yl)-3-(hydroxymethyl)-4-pyridyl]-1-methyl-2-oxo-3-pyridyl]cyclopropanecarboxamide], half-maximal inhibition (IC50) required 62.5 nM.

The same assay, now with this note: Lymphocyte, Table 1, anti-IgM stimulation, CD69 positive of CD20 positive cells.
For `Cn1cc(-c2ccnc(N3CCn4c(cc5c4CC(C)(C)C5)C3=O)c2CO)cc(NC(=O)C2CCC2)c1=O` [Compound 101, N-[5-[2-(7,7-dimethyl-4-oxo-1,2,6,8-tetrahydrocyclopenta[3,4]pyrrolo[3,5-b]pyrazin-3-yl)-3-(hydroxymethyl)-4-pyridyl]-1-methyl-2-oxo-3-pyridyl]cyclobutanecarboxamide], the IC50 is 4200 nM. Same read-out and setting: as for `Cn1cc(-c2ccnc(N3CCn4c(cc5c4CC(C)(C)C5)C3=O)c2CO)cc(NC(=O)CC2CC2)c1=O` [Compound 103, 2-cyclopropyl-N-[5-[2-(7,7-dimethyl-4-oxo-1,2,6,8-tetrahydrocyclopenta[3,4]pyrrolo[3,5-b]pyrazin-3-yl)-3-(hydroxymethyl)-4-pyridyl]-1-methyl-2-oxo-3-pyridyl]acetamide], the figure is 4900 nM; as for `CCC(=O)Nc1cc(-c2ccnc(N3CCn4c(cc5c4CC(C)(C)C5)C3=O)c2CO)cn(C)c1=O` [Compound 107, N-[5-[2-(7,7-dimethyl-4-oxo-1,2,6,8-tetrahydrocyclopenta[3,4]pyrrolo[3,5-b]pyrazin-3-yl)-3-(hydroxymethyl)-4-pyridyl]-1-methyl-2-oxo-3-pyridyl]propanamide], 1600 nM. As for `Cn1cc(-c2ccnc(N3CCn4c(cc5c4CC(C)(C)C5)C3=O)c2CO)cc(NC(=O)c2cccnc2)c1=O` [Compound 109, N-[5-[2-(7,7-dimethyl-4-oxo-1,2,6,8-tetrahydrocyclopenta[3,4]pyrrolo[3,5-b]pyrazin-3-yl)-3-(hydroxymethyl)-4-pyridyl]-1-methyl-2-oxo-3-pyridyl]pyridine-3-carboxamide], the IC50 is more than 5200 nM. Same read-out and setting: as for `CC(=O)Nc1cc(-c2ccnc(N3CCn4c(cc5c4CC(C)(C)C5)C3=O)c2CO)cn(C)c1=O` [Compound 121, N-[5-[2-(7,7-dimethyl-4-oxo-1,2,6,8-tetrahydrocyclopenta[3,4]pyrrolo[3,5-b]pyrazin-3-yl)-3-(hydroxymethyl)-4-pyridyl]-1-methyl-2-oxo-3-pyridyl]acetamide], the figure is 535 nM.

Staying with this assay, now noted: Lymphocyte, Table 2, anti-IgM stimulation, CD69 positive of CD20 positive cells.
Consider `Cn1cc(-c2ccnc(N3CCn4c(cc5c4CC(C)(C)C5)C3=O)c2CO)cc(NC(=O)[C@H]2CCCO2)c1=O` (stereo in doubt) [Compound 148, (2R)—N-[5-[2-(7,7-dimethyl-4-oxo-1,2,6,8-tetrahydrocyclopenta[3,4]pyrrolo[3,5-b]pyrazin-3-yl)-3-(hydroxymethyl)-4-pyridyl]-1-methyl-2-oxo-3-pyridyl]tetrahydrofuran-2-carboxamide], for which the IC50 was more than 6100 nM. With `Cn1cc(-c2ccnc(N3CCn4c(cc5c4CC(C)(C)C5)C3=O)c2CO)cc(NC(=O)[C@@H]2CCCO2)c1=O` (stereo in doubt) [Compound 149, (2S)—N-[5-[2-(7,7-dimethyl-4-oxo-1,2,6,8-tetrahydrocyclopenta[3,4]pyrrolo[3,5-b]pyrazin-3-yl)-3-(hydroxymethyl)-4-pyridyl]-1-methyl-2-oxo-3-pyridyl]tetrahydrofuran-2-carboxamide], the IC50 was more than 6300 nM. The same measure, in the same setting: as for `Cn1cc(-c2ccnc(N3CCc4c(cc5n4CCCC5)C3=O)c2CO)cc(NC(=O)C2CC2)c1=O` [Compound 133, N-[5-[3-(hydroxymethyl)-2-(1-oxo-3,4,6,7,8,9-hexahydropyrido[3,4-b]indolizin-2-yl)-4-pyridyl]-1-methyl-2-oxo-3-pyridyl]cyclopropanecarboxamide], the figure is more than 4300 nM. The same measure, in the same setting: to `Cn1cc(-c2ccnc(N3CCn4c(cc5c4CC(C)(C)C5)C3=O)c2CO)cc(NC(=O)C2(F)CC2)c1=O` [Compound 134, N-[5-[2-(7,7-dimethyl-4-oxo-1,2,6,8-tetrahydrocyclopenta[3,4]pyrrolo[3,5-b]pyrazin-3-yl)-3-(hydroxymethyl)-4-pyridyl]-1-methyl-2-oxo-3-pyridyl]-1-fluoro-cyclopropanecarboxamide] belongs 4200 nM; to `Cn1cc(-c2ccnc(N3CCn4c(cc5c4CC(C)(C)C5)C3=O)c2CO)cc(NC(=O)C2(O)CC2)c1=O` [Compound 135, N-[5-[2-(7,7-dimethyl-4-oxo-1,2,6,8-tetrahydrocyclopenta[3,4]pyrrolo[3,5-b]pyrazin-3-yl)-3-(hydroxymethyl)-4-pyridyl]-1-methyl-2-oxo-3-pyridyl]-1-hydroxy-cyclopropanecarboxamide], more than 3400 nM. In turn, `COCC(=O)Nc1cc(-c2ccnc(N3CCn4c(cc5c4CC(C)(C)C5)C3=O)c2CO)cn(C)c1=O` [Compound 157, N-[5-[2-(7,7-dimethyl-4-oxo-1,2,6,8-tetrahydrocyclopenta[3,4]pyrrolo[3,5-b]pyrazin-3-yl)-3-(hydroxymethyl)-4-pyridyl]-1-methyl-2-oxo-3-pyridyl]-2-methoxy-acetamide] showed a 50% inhibitory concentration (IC50) of more than 4400 nM. In turn, `CCCC(=O)Nc1cc(-c2ccnc(N3CCn4c(cc5c4CC(C)(C)C5)C3=O)c2CO)cn(C)c1=O` [Compound 163, N-[5-[2-(7,7-dimethyl-4-oxo-1,2,6,8-tetrahydrocyclopenta[3,4]pyrrolo[3,5-b]pyrazin-3-yl)-3-(hydroxymethyl)-4-pyridyl]-1-methyl-2-oxo-3-pyridyl]butanamide] displayed an IC50 of 1900 nM. In other words, the single-digit micromolar range.

The same assay, now with this note: Table 1, anti-IgM stimulation, CD69 positive of CD20 positive cells.
`Cn1cc(-c2ccnc(N3CCn4c(cc5c4CC(C)(C)C5)C3=O)c2CO)cc(NC(=O)C2CC2F)c1=O` (centres unmarked) [Compound 117, N-[5-[2-(7,7-dimethyl-4-oxo-1,2,6,8-tetrahydrocyclopenta[3,4]pyrrolo[3,5-b]pyrazin-3-yl)-3-(hydroxymethyl)-4-pyridyl]-1-methyl-2-oxo-3-pyridyl]-2-fluoro-cyclopropanecarboxamide] had an IC50 of 567 nM.

Take `Cn1cc(-c2ccnc(N3CCn4c(cc5c4CC(C)(C)C5)C3=O)c2CO)cc(NC(=O)C2CC2F)c1=O` (centres unmarked) [Compound 118, N-[5-[2-(7,7-dimethyl-4-oxo-1,2,6,8-tetrahydrocyclopenta[3,4]pyrrolo[3,5-b]pyrazin-3-yl)-3-(hydroxymethyl)-4-pyridyl]-1-methyl-2-oxo-3-pyridyl]-2-fluoro-cyclopropanecarboxamide]: it took 219 nM to reach half-maximal inhibition (IC50).
